Measured values published in patent publication US10577349B2 (Sanford Burnham Prebys Medical Discovery Institute, priority 2015, dated 2020).
Converted amounts (≈) assume the structure as drawn. Where two headings read alike, the source gives them in different places.

Key:
[1] = tested on: A375; experiment: 48 h Cytotoxicity A375; type: cell-based; conditions: Homo sapiens, A-375
[2] = biological target: EmCV Cap-dependent translation; experiment: In vitro translation assay, FF-EmCV-Ren construct, cap-dependent (FF luciferase); type: biochemical, rabbit reticulocyte lysates
Summary of the method: (§1)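 RRL + Translation Mix -Met/-Leu 1:1; cpd pre-inc 1 h RT; 0.1 μg RNA/well; 2 h 30° C; Dual-Glo reagent 1 → FF read, reagent 2 → Ren read, 10 min each. Counter-screen: cpd added post-translation.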

[3] = biological target: EmCV Cap-independent translation; experiment: In vitro translation assay, FF-EmCV-Ren construct, cap-independent (Ren luciferase); type: biochemical, rabbit reticulocyte lysates
Summary of the method: as §1

[4] = biological target: HCV cap-dependent translation; experiment: In vitro translation assay, FF-HCV-Ren construct, cap-dependent (FF luciferase); type: biochemical, rabbit reticulocyte lysates
Summary of the method: as §1

[5] = biological target: HCV cap-independent translation; experiment: In vitro translation assay, FF-HCV-Ren construct, cap-independent (Ren luciferase); type: biochemical, rabbit reticulocyte lysates
Summary of the method: as §1

[6] = Aqueous Solubility in pION's buffer; type: physicochemical
[7] = Aqueous Solubility in 1xPBS, pH 7.4; type: physicochemical; conditions: pH 7.4, aqueous buffer
[8] = PAMPA Permeability; type: in vitro ADME
[9] = Hepatic Microsome Stability Mouse; type: in vitro ADME
[10] = Hepatic Microsome Stability Human; type: in vitro ADME
[11] = tested on: A375 tumors; experiment: A375 xenograft in nude mice; type: in vivo
Procedure: All animal studies were conducted in the SBMRI Animal Facility in accordance with the Institutional Animal Care and Use Committee guidelines. Six-week-old female nu/nu mice were purchased Harlan Laboratories (Indianapolis, Ind.) and allowed to acclimatize for 1 week. A375 cells (1×10^6, suspended in 200 μL sterile PBS) were injected into subcutaneous flank tissue. When the xenograft size reached ˜250 mm^3, mice were sorted into different groups. For PLX4720 and Compound 38 combination experiments, mice were either fed PLX4720-containing chow alone (AIN76A Roden Diet with 417 mg PLX4720/kg from Open Source Diets) for the control group or PLX4 720-containing chow plus an IP injection of 1 mg/kg Compound 38 twice a week. For MEKi plus Compound 38 experiments, PD0325901 at 20 mg/kg (formulated in 0.5% hydroxypropyl methylcellulose plus 0.2% Tween-80) was administered by oral gavage twice a week (Monday and Thursday) for the control group, or PD035901 plus IP injection of 1 mg/kg Compound 38 was administered twice a week (Tuesday and Friday). Mice were maintained in a pathogen-free environment with free access to food. Body weight and tumor volume were measured twice a week. Tumor size was measured with linear calipers and calculated using the formula: ([length in millimeters×(width in millimeters)2]/2). Mice were sacrificed after 4 weeks and tumors were fixed in Z-Fix (Anatech, Battle Creek, Mich.) and embedded in paraffin for immunohistochemistry.
A375 human melanomacells were injected subcutaneously (1×10^6) into the flank of nude mice and allowed to form established tumors. Once tumors reached approximately 250 mm3, mice were randomly grouped and subjected to the indicated treatments [chow containing PLX4720 (417 mg/kg) and/or Compound 38 (1 mg/kg, 2 times per week intraperitoneally)]. Tumor size was measured at the indicated time points. The experiment was repeated twice. […] When tumors were allowed to reach 500 mm^3 before initiating treatment, 5 of 7 […] mice subjected to BRAFi treatment alone relapsed as drug-resistant tumors (4/5 within 4-6 weeks), whereas only 3 of 6 (50%) subjected to combination treatment developed resistance, albeit more slowly (2/3 after 8 weeks; FIG. 22). […] Proteins prepared at the indicated times from A375 tumors that were subjected in vivo to treatment with Compound 38 were incubated with m^7GTP-beads to capture the eIF4F complex. Shown is time-dependent inhibition of eIF4G1 binding to eIF4E in vivo, concomitant with increased binding of inhibitory 4E-BP1 to eIF4E.

Row | SMILES | IC50 [1] [µM] | IC50 [2] [µM] | IC50 [3] [µM] | IC50 [4] [µM] | IC50 [5] [µM] | also measured
1 | O=C(/C=C/c1cncc(F)c1)c1c(-c2ccc(OC(F)(F)F)cc2)c2cc(Cl)ccc2[nH]c1=O [Compound 87, 3-[(2E)-3-(5-fluoro(3-pyridyl))prop-2-enoyl]-6-chloro-4-[4-(trifluoromethoxy)phenyl]hydroquinolin-2-one] | 2 to 10 | 2 to 10 | 2 to 10 | 2 to 10 | 2 to 10 | 
2 | O=C(/C=C/c1cnccn1)c1c(-c2ccccc2)c2cc(Cl)ccc2[nH]c1=O [Compound 52, 6-Chloro-4-phenyl-3-(3-pyrazin-2-yl-acryloyl)-1H-quinolin-2-one] | 2 to 10 | 2 to 10 | 2 to 10 | 10 to 20 | 2 to 10 | 
3 | O=C(/C=C/c1nc2ccccc2[nH]1)c1c(O)nc2ccc(Cl)cc2c1-c1ccccc1 [BI-69A11, reference compound] |  |  |  |  |  | solubility ([6]; aqueous buffer, pH 5.0, read-out: Aqueous Solubility in pION's buffer pH 5.0): 0.16 µg/mL (≈ 0.376 µM); solubility ([6]; pH 6.2, aqueous buffer, read-out: Aqueous Solubility in pION's buffer pH 6.2): 0.24 µg/mL (≈ 0.564 µM); solubility ([6]; pH 7.4, aqueous buffer, read-out: Aqueous Solubility in pION's buffer pH 7.4): 0.1 µg/mL (≈ 0.235 µM); solubility [7]: 0.11 µg/mL (≈ 0.258 µM); Papp ([8]; Donor pH 5.0, Acceptor pH 7.4, read-out: PAMPA Permeability, Pe, Donor pH 5.0): 13 ×10⁻⁶ cm/s; Papp ([8]; Donor pH 6.2, Acceptor pH 7.4, read-out: PAMPA Permeability, Pe, Donor pH 6.2): 16 ×10⁻⁶ cm/s; Papp ([8]; pH 7.4, Donor pH 7.4, Acceptor pH 7.4, read-out: PAMPA Permeability, Pe, Donor pH 7.4): 42 ×10⁻⁶ cm/s; Hepatic Microsome Stability (% remaining at 1 Hr) Mouse [9]: 48.54 % remaining; Hepatic Microsome Stability (% remaining at 1 Hr) Mouse (no NADPH) ([9]; no NADPH): 45.01 % remaining; Hepatic Microsome Stability (% Remaining at 1 hr) Human [10]: 68.24 % Remaining; Hepatic Microsome Stability (% Remaining at 1 hr) Human (no NADPH) ([10]; no NADPH): 61.74 % Remaining
4 | O=C(/C=C/c1ccccn1)c1c(-c2ccc(Br)cc2)c2cc(Cl)ccc2[nH]c1=O [Compound 92, 3-((2E)-3-(2-pyridyl)prop-2-enoyl)-4-(4-bromophenyl)-6-chlorohydroquinolin-2-one] | < 2 | 2 to 10 | 2 to 10 | 2 to 10 | 2 to 10 | 
5 | COc1ccc2[nH]c(/C=C/C(=O)c3c(-c4ccccc4)c4cc(Cl)ccc4[nH]c3=O)nc2c1 [Compound 65, 6-Chloro-3-[3-(5-methoxy-1H-benzoimidazol-2-yl)-acryloyl]-4-phenyl-1H-quinolin-2-one] | < 2 | 2 to 10 | 2 to 10 | 2 to 10 | 2 to 10 | 
6 | O=C(/C=C/c1cncc(F)c1)c1c(-c2ccc(Br)cc2)c2cc(Cl)ccc2[nH]c1=O [Compound 91, 3-[(2E)-3-(5-fluoro(3-pyridyl))prop-2-enoyl]-4-(4-bromophenyl)-6-chlorohydroquinolin-2-one] | 2 to 10 | 2 to 10 | 2 to 10 | 2 to 10 | 2 to 10 | 
7 | N#Cc1cncc(-c2c(C(=O)/C=C/c3ccccn3)c(=O)[nH]c3ccc(Cl)cc23)c1 [Compound 106, 5-[3-((2E)-3-(2-pyridyl)prop-2-enoyl)-6-chloro-2-oxo-4-hydroquinolyl]pyridine-3-carbonitrile] | < 2 | > 20 | 10 to 20 | > 20 | 10 to 20 | 
8 | N#Cc1ccc(-c2c(C(=O)/C=C/c3cncc(F)c3)c(=O)[nH]c3ccc(Cl)cc23)cc1 [Compound 89] | 2 to 10 | 2 to 10 | 2 to 10 | 2 to 10 | 2 to 10 | 
9 | O=C(CCc1cncc(F)c1)c1c(-c2ccccc2)c2cc(Cl)ccc2[nH]c1=O [Compound 67, 6-Chloro-3-[3-(5-fluoro(3-pyridyl))propanoyl]-4-phenylhydroquinolin-2-one] | > 20 | > 20 | > 20 | > 20 | > 20 | 
10 | O=C(/C=C/c1cncc(C(F)(F)F)c1)c1c(-c2ccccc2)c2cc(Cl)ccc2[nH]c1=O [Compound 76, 3-{(2E)-3-[5-(trifluoromethyl)(3-pyridyl)]prop-2-enoyl}-6-chloro-4-phenylhydroquinolin-2-one] | < 2 | 2 to 10 | 2 to 10 | 2 to 10 | 2 to 10 | 
11 | O=C(/C=C/c1ccccn1)c1c(-c2ccc(C(F)(F)F)cc2)c2cc(Cl)ccc2[nH]c1=O [Compound 84, 3-((2E)-3-(2-pyridyl)prop-2-enoyl)-6-chloro-4-[4-(trifluoromethyl)phenyl]hydroquinolin-2-one] | < 2 | 2 to 10 | 2 to 10 | 2 to 10 | 2 to 10 | 
12 | COc1ccc(/C=C/C(=O)c2c(-c3ccccc3)c3cc(Cl)ccc3[nH]c2=O)c(F)c1 [Compound 43, 6-Chloro-3-[3-(2-fluoro-4-methoxy-phenyl)-acryloyl]-4-phenyl-1H-quinolin-2-one] | < 2 | > 20 | > 20 | 2 to 10 | 2 to 10 | 
13 | O=C(/C=C/c1nc2ccccc2[nH]1)c1c(-c2ccccc2)c2ccncc2[nH]c1=O [Compound 22, 3-(3-1H-Benzoimidazol-2-yl-acryloyl)-4-phenyl-1H-[1,7]naphthyridin-2-one] | > 20 | 10 to 20 | 10 to 20 | 10 to 20 | 10 to 20 | 
14 | O=C(/C=C/c1nc2ccccc2[nH]1)c1c(-c2ccccc2)c2cc([N+](=O)[O-])ccc2[nH]c1=O [Compound 13, 3-(3-1H-Benzoimidazol-2-yl-acryloyl)-6-nitro-4-phenyl-1H-quinolin-2-one] | 2 to 10 | 2 to 10 | 2 to 10 | 10 to 20 | 2 to 10 | 
15 | O=C(/C=C/c1ccc(C(F)(F)F)cc1)c1c(-c2ccccc2)c2cc(Cl)ccc2[nH]c1=O [Compound 39, 6-Chloro-4-phenyl-3-[3-(4-trifluoromethyl-phenyl)-acryloyl]-1H-quinolin-2-one] | 2 to 10 | 2 to 10 | 2 to 10 | 10 to 20 | 10 to 20 | 
16 | CN(C)c1ccc(/C=C/C(=O)c2c(-c3ccccc3)c3cc(Cl)ccc3[nH]c2=O)cc1 [Compound 35, 6-Chloro-3-[3-(4-dimethylamino-phenyl)-acryloyl]-4-phenyl-1H-quinolin-2-one] | > 20 | > 20 | > 20 | > 20 | > 20 | 
17 | COc1ccc(-c2c(C(=O)/C=C/c3ccccn3)c(=O)[nH]c3ccc(Cl)cc23)cc1 [Compound 80, 3-((2E)-3-(2-pyridyl)prop-2-enoyl)-6-chloro-4-(4-methoxyphenyl)hydroquinolin-2-one] | 2 to 10 | 2 to 10 | 2 to 10 | 10 to 20 | 2 to 10 | 
18 | O=C(/C=C/c1nc2ccccc2[nH]1)c1c(C2CCCCC2)c2cc(Cl)ccc2[nH]c1=O [Compound 11, (E)-3-(3-(1H-benzo[d]imidazol-2-yl)acryloyl)-6-chloro-4-cyclohexylquinolin-2(1H)-one] | < 2 | 2 to 10 | 2 to 10 | 2 to 10 | 2 to 10 | 
19 | CCCS(=O)(=O)Nc1ccc(F)c(C(=O)c2c[nH]c3ncc(Cl)cc23)c1F [PLX4720, reference compound] |  |  |  |  |  | Growth of established tumors (~250 mm^3), BRAFi alone ([11]; chow containing PLX4720 (417 mg/kg)): largely inhibited; Tumors resumed growth, BRAFi-treated group ([11]; treatment started at ~250 mm^3, PLX4720 chow): 3/5
20 | O=C(/C=C/c1c(F)cccc1F)c1c(-c2ccccc2)c2cc(Cl)ccc2[nH]c1=O [Compound 42, 6-Chloro-3-[3-(2,6-difluoro-phenyl)-acryloyl]-4-phenyl-1H-quinolin-2-one] | < 2 | 2 to 10 | 2 to 10 | 2 to 10 | 2 to 10 | 
